Test results: patent US8084497B2, “C-(2-phenyl-cyclohexyl)-methylamine compounds for therapy of fibromyalgia” (Gruenenthal GmbH, priority 2003, dated 2011)
Where a name gives a salt, the structure may show the parent alone. Marks after values point to notes of the source that are not given here.

Experiments:
human μ-opiate receptor = molecular target: T1, human μ-opiate receptor (Homo sapiens, UniProt P35372); test: Affinity for the human μ-opiate receptor ([3H]-naloxone displacement, CHO-K1 membrane preparation, SPA); format: binding
T1 construct: purchased Perkin Elmer, Zaventem, Belgium RB-HOM; host or cells: CHO-K1 cells (recombinant expression)
Protocol: Investigation of the affinity for the human μ-opiate receptor The receptor affinity for the human μ-opiate receptor is determined in a homogeneous set-up in microtitre plates. For this, dilution series of the substances to be tested are incubated with a receptor membrane preparation (15-40 μg protein/250 μl incubation batch) of CHO-K1 cells which express the human μ-opiate receptor (RB-HOM receptor membrane preparation from Perkin Elmer, Zaventem, Belgium) in the presence of 1 nmol/l of the radioactive ligand [^3H]-naloxone (NET719, Perkin Elmer, Zaventem, Belgium) and 1 mg WGA-SPA-Beads (wheat germ agglutinin SPA beads from Amersham/Pharmacia, Freiburg, Germany) in a total volume of 250 μl for 90 minutes at room temperature. 50 mmol/l Tris-HCl supplemented with 0.05% sodium azide and with 0.06% bovine serum albumin is used as the incubation buffer. 25 μmol/l naloxone are additionally added for determination of the non-specific binding. After the end of the ninety-minute incubation time, the microtitre plates are centrifuged for 20 minutes at 1,000 g and the radioactivity is measured in a […] (Microbeta-Trilux, PerkinElmer Wallac, Freiburg, Germany). The percentage displacement of the radioactive ligand from its binding to the human μ-opiate receptor is determined at a concentration of the test substances of 1 μmol/l and stated as the percentage inhibition of the specific binding. Starting from the percentage displacement by various concentrations of the test substances, IC50 inhibitory concentrations which cause a 50 percent displacement of the radioactive ligand are calculated. By conversion by means of the Cheng-Prusoff relationship, Ki values for the test substances are obtained (Cheng and Prusoff 1973).

5-HT reuptake = molecular target: T2, 5-HT reuptake (Rattus norvegicus, UniProt P31652); test: 5-HT reuptake inhibition in rat brain synaptosomes (medulla+pons); format: biochemical
T2 construct: synaptosomes are freshly isolated from areas of the rat brain; from tissue; host or cells: P2 synaptosome fraction from the medulla+pons region of male rat brain
Source text: In order to be able to carry out these in vitro studies, synaptosomes are freshly isolated from areas of the rat brain. […] For the NA reuptake these vesicular particles are isolated from the hypothalamus, and for the 5-HT reuptake from the medulla+pons region of male rat brains.
The IC50 values were obtained with the aid of the computer program “Figure P” (version 6.0, Biosoft, Cambridge, England). […] The computer program “Ligand” (version 4, Biosoft, England) was used to display KD values.

rats = test: Elevated plus maze test on rats (onset of anxiolytic actions); format: in vivo, rat
Protocol: In the elevated plus maze test the actions of substances on the endogenous anxiety of rodents towards open and elevated places are determined.
The apparatus was placed approx. 1 m above the floor and comprised four arms arranged in a cross, two opposite arms being open and two closed. […] The duration of stay and the number of entries into the open arms were evaluated. The group size was 10-15 animals. The single administration of the test substances or of the control vehicle took place 30 min before testing.
It is reported in the literature that benzodiazepines induce an increased duration of stay and entries into the open compartment. […] The typical disadvantages of monoamine reuptake inhibitors in the therapy of anxiety patients, namely the delayed onset of action and the initially anxiogenic-like effects, can thus be followed in the elevated plus maze test on rats. The elevated plus maze test is therefore a suitable animal model for the investigation of new therapies which have the aim of accelerating the onset of action of monoamine reuptake inhibitors.
Statistical evaluation: Anova plus post-hoc Dunnett's test (Significance level: p<0.05; *: significant versus vehicle; #: significant versus intrinsic effect of 16 mg/kg i.p. 3-(2-dimethylaminomethyl-cyclohexyl)-phenol).

[1] = 8 mg/kg i.p., single administration 30 min before testing
[2] = 16 mg/kg i.p., single administration 30 min before testing
[3] = 2 mg/kg i.p., single administration
[4] = 1 mg/kg i.p., single administration

T1 sequence (P35372 whole entry): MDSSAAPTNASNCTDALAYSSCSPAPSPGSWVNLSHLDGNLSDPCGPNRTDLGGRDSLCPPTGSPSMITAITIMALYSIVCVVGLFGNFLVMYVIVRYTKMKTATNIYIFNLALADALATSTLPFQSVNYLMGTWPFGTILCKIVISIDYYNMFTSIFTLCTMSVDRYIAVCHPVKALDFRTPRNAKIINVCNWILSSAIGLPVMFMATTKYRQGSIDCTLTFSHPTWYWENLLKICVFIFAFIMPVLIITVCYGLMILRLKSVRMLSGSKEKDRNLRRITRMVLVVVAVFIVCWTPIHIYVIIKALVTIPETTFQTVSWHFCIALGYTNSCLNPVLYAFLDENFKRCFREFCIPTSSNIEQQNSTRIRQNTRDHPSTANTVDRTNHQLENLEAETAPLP
T2 sequence (P31652 whole entry): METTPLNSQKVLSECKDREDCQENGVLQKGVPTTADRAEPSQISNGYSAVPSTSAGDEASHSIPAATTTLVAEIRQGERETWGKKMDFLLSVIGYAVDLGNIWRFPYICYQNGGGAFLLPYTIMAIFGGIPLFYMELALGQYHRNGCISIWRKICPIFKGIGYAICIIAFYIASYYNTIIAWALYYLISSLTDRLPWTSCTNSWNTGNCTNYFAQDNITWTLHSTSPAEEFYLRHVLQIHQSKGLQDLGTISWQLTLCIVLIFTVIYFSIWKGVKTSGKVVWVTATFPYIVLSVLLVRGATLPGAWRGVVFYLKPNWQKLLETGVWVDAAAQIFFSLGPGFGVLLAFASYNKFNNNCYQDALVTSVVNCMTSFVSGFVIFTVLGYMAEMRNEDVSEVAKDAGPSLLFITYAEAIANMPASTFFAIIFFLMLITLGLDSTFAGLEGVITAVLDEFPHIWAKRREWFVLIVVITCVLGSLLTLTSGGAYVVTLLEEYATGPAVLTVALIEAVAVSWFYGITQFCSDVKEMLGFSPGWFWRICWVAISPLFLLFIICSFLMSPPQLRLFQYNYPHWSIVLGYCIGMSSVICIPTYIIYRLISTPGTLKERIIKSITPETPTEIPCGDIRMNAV

SMILES | Ki (human μ-opiate receptor) | Ki (5-HT reuptake) | Open arms: Duration of stay (rats; [2]) | Open arms: Number of entries (rats; [2]) | anxiolytic action (in words) (rats; single administration) | duration of stay in the open arms (in words) (rats; single administration) | number of entries into the open arms (in words) (rats; single administration) | also measured
CN(C)CC1CCCCC1c1cccc(O)c1 (centres unmarked) [3-(2-Dimethylaminomethyl-cyclohexyl)-phenol, hydrochloride] | 140 nM | 50 nM | – | – | – | – | – | –
CN(C)CC1CCCCC1c1cccc(O)c1 (centres unmarked) [3-(2-Dimethylaminomethyl-cyclohexyl)-phenol] | – | – | 118.2* sec | 8.5 | significant anxiolytic actions | significant increase | clear increase | ratio between the μ-opioid component and the monoamine reuptake inhibition (in words) (human μ-opiate receptor; versus 5-HT and NA reuptake inhibition): balanced ratio; Open arms: Duration of stay (rats; [1]): 29.0 s; Open arms: Number of entries (rats; [1]): 3.2; anxiogenic-like action (in words) (rats; acute administration): In no case was an anxiogenic-like action induced
CNCC1CCCCC1c1cccc(O)c1 (centres unmarked) [3-(2-Methylaminomethyl-cyclohexyl)-phenol hydrochloride] | 870 nM | 5670 nM | – | – | – | – | – | –
CN1C(=O)CN=C(c2ccccc2)c2cc(Cl)ccc21 [Diazepam] | – | – | – | – | – | increase | increase | Open arms: Duration of stay (rats; [3]): 77.7* sec; Open arms: Number of entries (rats; [3]): 8.1*
C=CCN1CC[C@]23c4c5ccc(O)c4O[C@H]2C(=O)CC[C@@]3(O)[C@H]1C5 [Naloxone] | – | – | – | – | – | – | – | Open arms: Duration of stay (rats; [4]): 28.6 s; Open arms: Number of entries (rats; [4]): 4.5
COc1ccc(C(CN(C)C)C2(O)CCCCC2)cc1 (centres unmarked) [Venlafaxine] | – | – | 66.9 s | 4.6 | no anxiolytic action | – | – | μ-Opioid receptor affinity (Ki values) (human μ-opiate receptor; [3H]-naloxone, CHO-K1 membranes): inactive
